Measured values taken from publication PMC7617869, “Molecular glues that inhibit deubiquitylase activity and inflammatory signaling” (Nature Structural & Molecular Biology, 2025).
“And” between values parts separate entries of the source, which are not always exact repeats. Equal values may be shown once.

Experiments:
Format in all cases: biochemical
BRISC = target: T1, BRISC (Homo sapiens, UniProt P46736+Q15018+Q9NXR7); assay: Michaelis–Menten analysis of BRISC inhibition
T1 construct: made in house; host or cells: Spodoptera frugiperda (Sf9) insect cells, MultiBac
Description: (§1) IQF assays were performed in DUB reaction buffer containing 50 mM HEPES–NaOH pH 7.0, 100 mM NaCl, 0.1 mg ml^−1 BSA, 1 mM DTT and 0.03% v/v Brij-35. […] The final concentration of BRISC WT, all BRISC mutants, HsBRISCΔLoop, MmBRISC and DrBRISCΔNΔC was 1 nM. Other enzymes were tested at the following concentrations: 5 nM ARISC (FL), 10 nM CfBRISCΔNΔC, 250 nM AMSH* (ref. [43]), 500 nM USP2 and 1 μM trypsin (Sigma, 9002-07-7). For Michaelis–Menten experiments, 1 nM BRISC with 0–1 μM IQF K63-linked diubiquitin substrate was used. Michaelis–Menten analyses and Lineweaver–Burk plots were calculated using GraphPad Prism (version 9.0).

[1] = system: AMSH* (a STAM2–AMSH fusion); assay: AMSH* IQF DUB activity assay; settings: Fig. 1g, AMSH*
Description: as §1
(§2) To assess enzymatic activity, BRISC complexes were diluted to concentrations between 1 nM and 50 nM. […] Then, 20-μl enzyme reactions were carried out in 384-well black flat-bottom low-flange plates (Corning, 35373). DUB activity was measured using IQF K63-linked diubiquitin (LifeSensors, DU6303) at 50 nM. Cleaved diubiquitin was monitored by measuring fluorescence intensity (excitation, 544 nm; emission, 575 nm; dichroic mirror, 560 nm). Fluorescence intensity was measured every minute for 30 min at 30 °C. Fluorescence intensity units were plotted against time to generate a linear reaction progress curve, where the initial velocity (V0) corresponds to the gradient of the curve (typically achieved within 15 min). IC50 values were calculated using the GraphPad Prism (version 9.0) built-in dose–response equation for inhibitor concentration versus response (variable slope).

trypsin = assay: Trypsin IQF diubiquitin selectivity assay; settings: Fig. 1g, Trypsin
Description: BRISC DUB activity was measured at room temperature using 1 nM BRISC and 500 nM IQF diubiquitin K63 substrate (LifeSensors, DU6303) in the presence of DMSO and compounds at 10 μM (final concentrations). Assays were performed in 384-well black flat-bottom low-flange plates (Corning, 35373) in buffer containing 50 mM HEPES–NaOH pH 7.0, 100 mM NaCl, 1 mg ml^−1 BSA, 1 mM DTT and 0.03% v/v Brij-35. Then, 10 μl of twofold concentrated enzyme stock was dispensed, followed by transfer of 200 nl of compounds (1 mM stock) using a 384-pin tool and a 15-min incubation at room temperature. Then, 10 μl of twofold concentrated substrate stock was added and the reaction was monitored by measuring fluorescence intensity (excitation, 540 nm; emission, 580 nm) after 20-min incubation at room temperature and ~50% of substrate was consumed. Orthogonal assays for verification of H20 and P12 hit compounds using USP2 (100 nM) and trypsin (125 nM) were performed in identical conditions.
as §1, §2

O=C(NC1C2CNCC21)c1nn(C(=O)c2c(Cl)cccc2Cl)cc1NC(=O)c1c(Cl)cccc1Cl (stereo not drawn) [FX-171-C]
Initial velocity (FU/min) (BRISC; di-Ub-TAMRA 31.2 nM, inhibitor 48 nM): 121.5 FU/min and 126.3 FU/min and 146.6 FU/min | Initial velocity (FU/min) (BRISC; di-Ub-TAMRA 31.2 nM, inhibitor 195 nM): 104.4 FU/min and 118.9 FU/min and 118.7 FU/min | Initial velocity (FU/min) (BRISC; di-Ub-TAMRA 31.2 nM, inhibitor 781 nM): 76.24 FU/min and 88.16 FU/min and 98.75 FU/min | Initial velocity (FU/min) (BRISC; di-Ub-TAMRA 31.2 nM, inhibitor 3.12 μM): 58.53 FU/min and 46.27 FU/min and 64.26 FU/min | Initial velocity (FU/min) (BRISC; di-Ub-TAMRA 31.2 nM, inhibitor 12.5 μM): 38.22 FU/min and 44.65 FU/min and 65.69 FU/min | Initial velocity (FU/min) (BRISC; di-Ub-TAMRA 62.5 nM, inhibitor 48 nM): 182.7 FU/min and 137.5 FU/min and 123.2 FU/min | Initial velocity (FU/min) (BRISC; di-Ub-TAMRA 62.5 nM, inhibitor 195 nM): 166.2 FU/min and 105.9 FU/min and 106.4 FU/min | Initial velocity (FU/min) (BRISC; di-Ub-TAMRA 62.5 nM, inhibitor 781 nM): 126.7 FU/min and 95.78 FU/min and 99.98 FU/min | Initial velocity (FU/min) (BRISC; di-Ub-TAMRA 62.5 nM, inhibitor 3.12 μM): 70.11 FU/min and 76.58 FU/min and 69.67 FU/min | Initial velocity (FU/min) (BRISC; di-Ub-TAMRA 62.5 nM, inhibitor 12.5 μM): 34.93 FU/min and 52.19 FU/min and 58.9 FU/min | Initial velocity (FU/min) (BRISC; di-Ub-TAMRA 62.5 nM, inhibitor 50 μM): 28.22 FU/min and 40.49 FU/min and 46.74 FU/min | Initial velocity (FU/min) (BRISC; di-Ub-TAMRA 125 nM, inhibitor 48 nM): 467.2 FU/min and 386.6 FU/min and 434.5 FU/min | Initial velocity (FU/min) (BRISC; di-Ub-TAMRA 125 nM, inhibitor 195 nM): 414.6 FU/min and 331.3 FU/min and 418.4 FU/min | Initial velocity (FU/min) (BRISC; di-Ub-TAMRA 125 nM, inhibitor 781 nM): 304.6 FU/min and 276.4 FU/min and 303.4 FU/min | Initial velocity (FU/min) (BRISC; di-Ub-TAMRA 125 nM, inhibitor 3.12 μM): 173.8 FU/min and 175.1 FU/min and 170.4 FU/min | Initial velocity (FU/min) (BRISC; di-Ub-TAMRA 125 nM, inhibitor 12.5 μM): 92.02 FU/min and 100.3 FU/min and 111.4 FU/min | Initial velocity (FU/min) (BRISC; di-Ub-TAMRA 125 nM, inhibitor 50 μM): 36.3 FU/min and 46.67 FU/min and 63.46 FU/min | Initial velocity (FU/min) (BRISC; di-Ub-TAMRA 250 nM, inhibitor 48 nM): 794.1 FU/min and 722.2 FU/min and 770.5 FU/min | Initial velocity (FU/min) (BRISC; di-Ub-TAMRA 250 nM, inhibitor 195 nM): 732.8 FU/min and 688 FU/min and 641.2 FU/min | Initial velocity (FU/min) (BRISC; di-Ub-TAMRA 250 nM, inhibitor 781 nM): 548.6 FU/min and 487.2 FU/min and 518.3 FU/min | Initial velocity (FU/min) (BRISC; di-Ub-TAMRA 250 nM, inhibitor 3.12 μM): 309.4 FU/min and 322.6 FU/min and 305.6 FU/min | Initial velocity (FU/min) (BRISC; di-Ub-TAMRA 250 nM, inhibitor 12.5 μM): 178.9 FU/min and 174 FU/min and 179.5 FU/min | Initial velocity (FU/min) (BRISC; di-Ub-TAMRA 250 nM, inhibitor 50 μM): 67.25 FU/min and 84.89 FU/min and 62.1 FU/min | Initial velocity (FU/min) (BRISC; di-Ub-TAMRA 500 nM, inhibitor 48 nM): 1729 FU/min and 1553 FU/min and 1273 FU/min | Initial velocity (FU/min) (BRISC; di-Ub-TAMRA 500 nM, inhibitor 195 nM): 1442 FU/min and 1370 FU/min and 1434 FU/min | Initial velocity (FU/min) (BRISC; di-Ub-TAMRA 500 nM, inhibitor 781 nM): 1085 FU/min and 985.1 FU/min and 1129 FU/min | Initial velocity (FU/min) (BRISC; di-Ub-TAMRA 500 nM, inhibitor 3.12 μM): 624.9 FU/min and 642.2 FU/min and 551.1 FU/min | Initial velocity (FU/min) (BRISC; di-Ub-TAMRA 500 nM, inhibitor 12.5 μM): 332.6 FU/min and 297.9 FU/min and 255.2 FU/min | Initial velocity (FU/min) (BRISC; di-Ub-TAMRA 500 nM, inhibitor 50 μM): 109.3 FU/min and 143.3 FU/min and 196.9 FU/min | Initial velocity (FU/min) (BRISC; di-Ub-TAMRA 1000 nM, inhibitor 48 nM): 2734 FU/min and 2460 FU/min and 2836 FU/min | Initial velocity (FU/min) (BRISC; di-Ub-TAMRA 1000 nM, inhibitor 195 nM): 2231 FU/min and 2296 FU/min and 2566 FU/min | Initial velocity (FU/min) (BRISC; di-Ub-TAMRA 1000 nM, inhibitor 781 nM): 1629 FU/min and 1647 FU/min and 1858 FU/min | Initial velocity (FU/min) (BRISC; di-Ub-TAMRA 1000 nM, inhibitor 3.12 μM): 1134 FU/min | Initial velocity (FU/min) (BRISC; di-Ub-TAMRA 1000 nM, inhibitor 50 μM): 213.3 FU/min and 360.7 FU/min and 415.9 FU/min | mode of inhibition (BRISC; enzyme activity at different substrate concentrations): not competitive inhibitors | Normalised V0 ([1]; FX-171-C 0.02 μM): 1.102 and 0.9959 and 1.122 | Normalised V0 ([1]; FX-171-C 0.0399999 μM): 1.076 and 0.9687 and 1.118 | Normalised V0 ([1]; FX-171-C 0.0599997 μM): 1.166 and 0.9974 and 1.026 | Normalised V0 ([1]; FX-171-C 0.0799994 μM): 1.155 and 1.046 and 1.034 | Normalised V0 ([1]; FX-171-C 0.119998 μM): 1.236 and 1.107 and 1.142 | Normalised V0 ([1]; FX-171-C 0.199996 μM): 1.177 and 1.065 and 1.2539 | Normalised V0 ([1]; FX-171-C 0.499975 μM): 0.9946 and 0.8997 and 1.162 | Normalised V0 ([1]; FX-171-C 0.799936 μM): 1.22 and 0.8896 and 1.186 | Normalised V0 ([1]; FX-171-C 1.25984 μM): 1.058 and 1.1 and 1.143 | Normalised V0 ([1]; FX-171-C 1.9996 μM): 1.14 and 1.15 and 1.191 | Normalised V0 ([1]; FX-171-C 3.159 μM): 1.081 and 1.064 and 1.2182 | Normalised V0 ([1]; FX-171-C 5.19739 μM): 0.9976 and 1.106 and 1.16 | Normalised V0 ([1]; FX-171-C 7.99364 μM): 1.138 and 1.066 and 1.161 | Normalised V0 ([1]; FX-171-C 12.7839 μM): 1.171 and 0.9747 and 1.21 | Normalised V0 ([1]; FX-171-C 19.96 μM): 0.7795 and 0.741 and 1.28 | Normalised V0 ([1]; FX-171-C 31.4999 μM): 1.112 and 1.039 and 1.002 | Normalised V0 ([1]; FX-171-C 50.147 μM): 1.1142 and 0.9322 and 1.253 | Normalised V0 ([1]; FX-171-C 79.7601 μM): 1.095 and 0.9276 and 1.158 | Normalised V0 ([1]; FX-171-C 125.99 μM): 1.097 and 0.9974 and 1.112 | Normalised V0 ([1]; FX-171-C 199.922 μM): 0.8792 and 0.8896 and 0.9452 | Normalised V0 (trypsin; FX-171-C 0.02 μM): 0.9754 and 1.082 and 1.037 | Normalised V0 (trypsin; FX-171-C 0.0399999 μM): 0.8958 and 1.072 and 0.9551 | Normalised V0 (trypsin; FX-171-C 0.0599997 μM): 0.994 and 1.174 and 1.005 | Normalised V0 (trypsin; FX-171-C 0.0799994 μM): 0.9908 and 1.085 and 0.9856 | Normalised V0 (trypsin; FX-171-C 0.119998 μM): 0.909 and 1.102 and 1.137 | Normalised V0 (trypsin; FX-171-C 0.199996 μM): 1.048 and 1.0751 and 0.9569 | Normalised V0 (trypsin; FX-171-C 0.499975 μM): 0.9677 and 1.122 and 0.9918 | Normalised V0 (trypsin; FX-171-C 0.799936 μM): 0.9633 and 1.093 and 0.8806 | Normalised V0 (trypsin; FX-171-C 1.25984 μM): 1.083 and 0.9949 and 1.069 | Normalised V0 (trypsin; FX-171-C 1.9996 μM): 1.032 and 1.136 and 0.9684 | Normalised V0 (trypsin; FX-171-C 3.159 μM): 0.959 and 1.075 and 1.119 | Normalised V0 (trypsin; FX-171-C 5.19739 μM): 1.013 and 1.118 and 1.082 | Normalised V0 (trypsin; FX-171-C 7.99364 μM): 1.036 and 1.142 and 1.053 | Normalised V0 (trypsin; FX-171-C 12.7839 μM): 1.107 and 1.095 and 0.9652 | Normalised V0 (trypsin; FX-171-C 19.96 μM): 0.9382 and 0.9859 and 0.9654 | Normalised V0 (trypsin; FX-171-C 31.4999 μM): 0.9264 and 1.08 and 0.8456 | Normalised V0 (trypsin; FX-171-C 50.147 μM): 0.8123 and 0.9453 and 0.8818 | Normalised V0 (trypsin; FX-171-C 79.7601 μM): 0.7444 and 0.9554 and 0.7546 | Normalised V0 (trypsin; FX-171-C 125.99 μM): 0.6817 and 0.8207 and 0.6739 | Normalised V0 (trypsin; FX-171-C 199.922 μM): 0.4322 and 0.4467 and 0.4966
